Experimental data as given in patent US10967029B2, “Method of using Cistanche tubulosa extract to prevent, slow down, or treat an eye disease caused by oxidative stress” (Sinphar Pharmaceutical Co., Ltd., priority 2014, dated 2021).
Converted amounts (≈) assume the structure as drawn. Like-named read-outs stand apart in the source and are kept apart here.

Key:
RPE cells [1] = assay: Cell viability and growth measurement of RPE cells (MTT assay), cytotoxicity test; format: cell-based; conditions: cytotoxicity to RPE cells, 24 hours
Procedure: The cell culturing comprises the following steps. • 1.
Before experiments, the medium was replaced by serum-free medium. […] After placed in an incubator, the cells were cultured for 24 hours after treated by various concentrations of embodiments 1-5. Next, 1.0 mg/mL 3-(4,5-Dimethylthiazol-2-yl)-2,5-diphenyltetrazolium bromide (MTT) was added and reacted at 37° C. for 1 hour. Afterwards, 200 μL dimethyl sulfoxide (DMSO) was added into each well and shake in the dark at room temperature for 10 minutes after slight mixing. After the residual cells were completely dissolved, an enzyme immunoassay analyzer (MRX microplate reader, USA) was used to detect the 550 nm absorbance of each well. The cells untreated by embodiments were used as a control group after culturing for 24 hours.
One purpose of the example 1 is to test the cytotoxicity of the embodiments 1-5 to the RPE cells and the promotion of the embodiments 1-5 to the RPE cell growth. The mitochondrial enzyme of live cells can reduce the MTT to formazan of purple crystal dissolved by DMSO. In short, the metabolic activity of cells is used to determine whether cells are alive or not. The measured dissolving absorbance is equal to the cell viability. Therefore, the more the cells alive, the higher the absorbance. The calculating formula of the cell viability was shown below. Cell viability (%)=(light absorbance after cells treated by drugs for 24 hours/light absorbance of the control group after 24 hours)×100%
If P<0.05, it indicates a significant difference.
Referring to FIGS. 1-5, which are diagrams showing cytotoxicity testing results according to the instant disclosure respectively.

RPE cells [2] = format: cell-based; conditions: 0.1 mM H2O2
Procedure: (§1) The cell culturing comprises the following steps. • 1. RPE cell clones were taken out from anti-frozen tubes in liquid nitrogen and quickly moved to a sterile hood after thawed in 37° C. water bath for 1 minute. RPE cell clones were taken out and placed in 10 cm dishes having 10 mL DMEM (Dulbecco's Modified Eagle Medium) therein. 10% inactivated fetal bovine serum (FBS), 2 mM L-glutamine, 100 U/mL penicillin, and 100 µg/mL streptomycin were added into the DMEM. • 2. The dishes were placed in a 37° C. incubator and cultured in conditions of a mixture gas of 95% air and 5% CO2, as well as 70% humidity. The old mediums were replaced by fresh mediums every 3 days. Serum-free DMEM was used instead of the mediums before performing experiments. • 3. When cells proliferated to nearly saturation, the numbers of cells were counted by a cell counter. […] Since RPE cells are attachment type cells, the medium containing the cells was transferred into 15 mL centrifugation tubes and then centrifuged at 72 g for 5 mines at room temperature when the medium was replaced. After centrifugation, the supernatant was removed and then fresh medium was added for culturing.
(§2) Before experiment, the medium was replaced by serum-free medium. Fixed quantity of RPE cells (2×10^5 cells/mL) were respectively placed in 96 wells of a plate. […] Next, different concentrations of oxidative stress inducer were added to treat the cells. […] The blue light having a wavelength of 480 nm and an illuminance of 350 lux was emitted by a blue light-emitting-diode (LED). Subsequently after treated by irradiating with blue light for 7 days or oxidative stress inducer for 24 hours, 0.5 mg/mL of MTT was added and reacted at 37° C. for 2 hours. Afterwards, 200 μL DMSO was added to each well. After slight mixing, the plate was vibrated in the dark for 10 minutes. After completely dissolving the residual cells, the enzyme immunoassay analyzer was used to detect the absorbance of each well. The cells untreated by oxidative stress inducers and embodiments were used as the control group. […]

RPE cells [3] = assay: Protective effect to blue light irradiation-induced cytotoxicity (MTT assay); conditions: for most effective action concentration range to blue light irradiation: blue light-induced cytotoxicity
Procedure: as §1
Before experiment, the medium was replaced by serum-free medium. Fixed quantity of RPE cells (2×10^5 cells/mL) were respectively placed in 96 wells of a plate. […] Next, different concentrations of oxidative stress inducer were added to treat the cells. […] The blue light having a wavelength of 480 nm and an illuminance of 350 lux was emitted by a blue light-emitting-diode (LED). […] Afterwards, 200 μL DMSO was added to each well. After slight mixing, the plate was vibrated in the dark for 10 minutes. After completely dissolving the residual cells, the enzyme immunoassay analyzer was used to detect the absorbance of each well. The cells untreated by oxidative stress inducers and embodiments were used as the control group.
The statistical analysis was performed by Student's t-test or one way ANOVA. If P<0.05, it indicates a significant difference.
The concentrations of embodiment 3 were 15.625, 31.25, and 62.5 μg/mL. […]

RPE cells [4] = conditions: for most effective action concentration range to t-BHP: t-BHP-induced cytotoxicity
Procedure: as §1, §2

RPE cells [5] = assay: Protective effect to NaN3-induced cytotoxicity (MTT assay); conditions: 10 mM NaN3 (viability about 50% without treatment); medium and high concentrations
Procedure: as §1, with “After centrifugation, the supernatant was removed and then fresh medium was added for culturing.” left out
Before experiment, the medium was replaced by serum-free medium. Fixed quantity of RPE cells (2×10^5 cells/mL) were respectively placed in 96 wells of a plate. […] After completely dissolving the residual cells, the enzyme immunoassay analyzer was used to detect the absorbance of each well. […]

| Molecule | IC25 (RPE cells [1]) | IC75 (RPE cells [1]) | IC50 (RPE cells [1]; read-out: IC50) | protection of cells from H2O2 damage (RPE cells [2]) | cell viability (RPE cells [3]; 5 days, 31.25 µg/mL) | most effective action concentration range to blue light irradiation (RPE cells [3]) | cytotoxicity response at high concentration (RPE cells [4]) | most effective action concentration range to t-BHP (RPE cells [4]) | cell viability (RPE cells [5]) | IC50 (RPE cells [1]) |
| --- | --- | --- | --- | --- | --- | --- | --- | --- | --- | --- |
| C[C@@H]1O[C@@H](O[C@@H]2[C@@H](O)[C@H](OCCc3ccc(O)c(O)c3)O[C@H](CO)[C@H]2OC(=O)/C=C/c2ccc(O)c(O)c2)[C@H](O)[C@H](O)[C@H]1O [Embodiment 3, Acteoside] | 31.25 µg/mL (≈ 50 µM) | 125 µg/mL (≈ 200 µM) | 62.5 µg/mL (≈ 100 µM) | protected | above 90% | between low and medium concentrations | reasonable cytotoxicity responses were observed | between low and medium concentrations | – | – |
| C[C@@H]1O[C@@H](O[C@@H]2[C@@H](O)[C@H](OCCc3ccc(O)c(O)c3)O[C@H](COC(=O)/C=C/c3ccc(O)c(O)c3)[C@H]2O)[C@H](O)[C@H](O)[C@H]1O [Embodiment 4, Isoacteoside] | 31.25 µg/mL (≈ 50 µM) | 125 µg/mL (≈ 200 µM) | 62.5 µg/mL (≈ 100 µM) | – | – | between low and medium concentrations | – | – | ~100% | – |
| Tubuloside A [Embodiment 5] | 150 µg/mL | 250 µg/mL | – | protected | – | – | – | – | ~100% | 200 µg/mL |
| echinacoside [Embodiment 2] | 50 µg/mL | 100 µg/mL | – | protected | – | – | – | between low and medium concentrations | – | 75 µg/mL |
